This note sets out measurements from EP0694535A1, “Non-peptidyl tachykinin receptor antagonists” (ELI LILLY AND COMPANY, priority 1994, dated 1996).

Experiment [1] deals with T1, human NK-2 receptor (Homo sapiens, UniProt P21452).
T1 construct: expressed in transfected cells; host or cells: CHO-hNK-2R cells (CHO-derived), membrane preparation
T1 sequence (P21452 1-398): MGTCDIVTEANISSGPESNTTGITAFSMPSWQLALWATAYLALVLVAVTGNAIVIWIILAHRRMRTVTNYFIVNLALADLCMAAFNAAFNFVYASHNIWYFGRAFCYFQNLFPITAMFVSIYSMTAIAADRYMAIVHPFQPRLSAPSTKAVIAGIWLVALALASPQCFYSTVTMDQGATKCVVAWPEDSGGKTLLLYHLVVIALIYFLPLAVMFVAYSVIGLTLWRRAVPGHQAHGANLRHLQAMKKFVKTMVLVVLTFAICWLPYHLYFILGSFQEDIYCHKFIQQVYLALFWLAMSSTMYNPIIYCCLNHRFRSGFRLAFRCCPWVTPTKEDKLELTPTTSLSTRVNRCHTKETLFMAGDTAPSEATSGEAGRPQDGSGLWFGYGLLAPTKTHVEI
Kind of experiment: NK-2 Receptor Binding Assay (CHO-hNK-2R membranes, iodohistidyl-neurokinin A). Particulars: inhibition of neurokinin A binding at ten micromolar, read-out: Percent Inhibition @ 10 μM. As for the experimental part:
The CHO-hNK-2R cells, a CHO-derived cell line transformed with the human NK-2 receptor, expressing about 400,000 such receptors per cell, were grown in 75 cm flasks or roller bottles in minimal essential medium (alpha modification) with 10% fetal bovine serum. The gene sequence of the human NK-2 receptor is given in N.P. Gerard, et al., Journal of Biological Chemistry, 265:20455-20462 (1990).
For preparation of membranes, 30 confluent roller bottle cultures were dissociated by washing each roller bottle with 10 ml of Dulbecco's phosphate buffered saline (PBS) without calcium and magnesium, followed by addition of 10 ml of enzyme-free cell dissociation solution (PBS-based, from Specialty Media, Inc.). After an additional 15 minutes, the dissociated cells were pooled and centrifuged at 1,000 RPM for 10 minutes in a clinical centrifuge. Membranes were prepared by homogenization of the cell pellets in 300 ml 50 mM Tris buffer, pH 7.4 with a Tekmar® homogenizer for 10-15 seconds, followed by centrifugation at 12,000 RPM (20,000 x g) for 30 minutes using a Beckman JA-14® rotor. The pellets were washed once using the above procedure. and the final pellets were resuspended in 100-120 ml 50 mM Tris buffer, pH 7.4, and 4 ml aliquots stored frozen at -70 °C. The protein concentration of this preparation was 2 mg/ml.
For the receptor binding assay, one 4-ml aliquot of the CHO-hNK-2R membrane preparation was suspended in 40 ml of assay buffer containing 50 mM Tris, pH 7.4, 3 mM manganese chloride, 0.02% bovine serum albumin (BSA) and 4 µg/ml chymostatin. A 200 µl volume of the homogenate (40 µg protein) was used per sample. The radioactive ligand was [[…]]iodohistidyl-neurokinin A (New England Nuclear, NEX-252), 2200 Ci/mmol. The ligand was prepared in assay buffer at 20 nCi per 100 µl; the final concentration in the assay was 20 pM. Non-specific binding was determined using 1 µM eledoisin. Ten concentrations of eledoisin from 0.1 to 1000 nM were used for a standard concentration-response curve.
All samples and standards were added to the incubation in 10 µl dimethylsulfoxide (DMSO) for screening (single dose) or in 5 µl DMSO for IC₅₀ determinations. The order of additions for incubation was 190 or 195 µl assay buffer, 200 µl homogenate, 10 or 5 µl sample in DMSO, 100 µl radioactive ligand. The samples were incubated 1 hr at room temperature and then filtered on a cell harvester through filters which had been presoaked for two hours in 50 mM Tris buffer, pH 7.7, containing 0.5% BSA. The filter was washed 3 times with approximately 3 ml of cold 50 mM Tris buffer, pH 7.7. The filter circles were then punched into 12 x 75 mm polystyrene tubes and counted in a gamma counter.
Table II, infra, provides a representative sample of the effectiveness as NK-2 receptor antagonists of many of the compounds of Formula I. The first column provides the Example number of the compound tested. The second column provides either the percent inhibition of neurokinin A binding when the compound is present in a ten micromolar concentration or the amount of compound (in micromolar amounts) necessary to inhibit fifty percent of the binding of neurokinin A. Those values which represent IC₅₀ values are designated by parentheses.

The target in experiment [2] is T2, NK-1 receptor (Homo sapiens, UniProt P25103).
T2 construct: an aliquot of IM9 cells; endogenous in cells; host or cells: IM9 cells (whole cells)
Put plainly: NK-1 Receptor Binding Assay (competition with labeled substance P on IM9 cells). Particulars: for inhibition at 10 µM: inhibition of substance P binding to the NK-1 receptor, read-out: Percent Inhibition; for IC50: concentration which inhibits fifty percent of the binding of substance P, 20 pM labeled substance P, 45 minutes at 4°C. In a few lines: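 IM9 cells (1 x 10⁶/tube in serum-supplemented RPMI) were incubated for 45 min at 4°C with 20 pM […] substance P plus rising competitor concentrations. Binding was stopped by filtration on PEI-soaked glass fiber filters. Nonspecific binding was defined with 20 nM unlabeled ligand.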

T2 sequence (P25103 whole entry): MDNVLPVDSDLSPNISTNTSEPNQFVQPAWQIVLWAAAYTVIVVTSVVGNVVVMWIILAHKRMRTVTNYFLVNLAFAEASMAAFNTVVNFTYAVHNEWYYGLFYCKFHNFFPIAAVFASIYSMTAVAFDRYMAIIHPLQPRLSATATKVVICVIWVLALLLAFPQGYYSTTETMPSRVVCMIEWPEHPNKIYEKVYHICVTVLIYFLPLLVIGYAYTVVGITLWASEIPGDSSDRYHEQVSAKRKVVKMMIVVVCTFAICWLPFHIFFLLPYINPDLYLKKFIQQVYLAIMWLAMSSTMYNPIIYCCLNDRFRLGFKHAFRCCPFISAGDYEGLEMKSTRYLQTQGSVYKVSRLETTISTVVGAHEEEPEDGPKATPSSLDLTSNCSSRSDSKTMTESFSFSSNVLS

Take `COc1cccc(Cn2c(-c3cc(OC)c(OC)c(OC)c3)nc3ccccc32)c1` [Example 45, 1-(3-methoxybenzyl)-2-(3,4,5-trimethoxyphenyl)-benzimidazole]: the figures for the inhibition at 10 µM in experiment [1] and in experiment [2] were 23.2% and 81%, respectively.
With `Cc1cccc(-c2nc3ccccc3n2Cc2ccc(Cl)c(Cl)c2)c1` [Example 64, 1-(3,4-Dichlorobenzyl)-2-(3-methylphenyl)benzimidazole], the inhibition (as a rule, the share of the control response that was lost under treatment) at 10 µM in experiment [1] was 58.7%; in experiment [2], 41%.
As to `COc1cc(-c2nc3ccc(OCCN4CCCCCC4)cc3n2Cc2ccccc2)cc(OC)c1OC` [Example 73, 1-benzyl-2-(3,4,5-trimethoxyphenyl)-6-[2-(1-hexamethyleneiminyl)ethoxy]benzimidazole], the inhibition at 10 µM in experiment [1] is 83.5%. For the same compound, the half-inhibitory concentration (IC50) – broadly, the concentration that gives 50% inhibition – in experiment [2] was 52 nM.
For the compound `COc1cc(-c2nc3ccccc3n2Cc2ccc(Cl)c(Cl)c2)cc(OC)c1OC` [Example 53, 1-(3,4-dichlorobenzyl)-2-(3,4,5-trimethoxyphenyl)-benzimidazole], the inhibition at 10 µM in experiment [1] was determined as 33.4%; in experiment [2], 45%.
With `COc1cc(-c2nc3ccccc3n2Cc2cccc(C)c2)cc(OC)c1OC` [Example 44, 1-(3-methylbenzyl)-2-(3,4,5-trimethoxyphenyl)-benzimidazole], the inhibition at 10 µM in experiment [1] was 52.9%. For the same compound, the IC50 in experiment [2] is 2050 nM.
Taken in the same sequence, the figures for `COc1cc(-c2nc3ccc(OCCN4CCCCC4)cc3n2Cc2ccccc2)cc(OC)c1OC` [Example 71, 1-benzyl-2-(3,4,5-trimethoxyphenyl)-6-[2-(1-piperidinyl)ethoxy]benzimidazole] were 70.1% and 60 nM.
For the compound `COc1cc(-c2nc3ccccc3n2Cc2cccc(Cl)c2)cc(OC)c1OC` [Example 40, 1-(3-chlorobenzyl)-2-(3,4,5-trimethoxyphenyl)-benzimidazole], the inhibition at 10 µM in experiment [1] was 55%; in experiment [2] it was 77%.
